Laboratory results from patent publication US12662707B2, “MYC amplification drives resistance to pan-RAS inhibitors in pancreatic cancer” (The Trustees of Columbia University in the City of New York, priority 2024, dated 2026).

Key:
[1] = tested on: CC3+ apoptotic cells, Cyclin A2; assay: CC3 and Cyclin A2 IHC in KPF/FC mice (tumor, colon); assay type: in vivo, mouse
Protocol: Tumor formation in KPF/FC (KrasLSL.G12D/+; p53flox/flox; Pdx1-Cre) mice was monitored by bi-weekly palpations until the detection of a mass, which was then confirmed by ultrasound. Tumor-bearing mice were randomized and assigned into groups (n=3/dose/timepoint). Single dose of RMC-7977 was administered orally at 10 mg/kg, 25 mg/kg and 50 mg/kg. The same vehicle formulation was used for the control group. Whole blood and tissue (tumors and colons) were harvested at indicated time points preserved as previously described (See Xenograft studies section).
All tissues were fixed for up to 24 hours using 10% neutral buffered formalin and then moved to 70% ethanol for long term storage. All stainings were performed on 4-μm tissue sections. Sections were deparaffinized using a Leica XL ST5010 autostainer, after which slides were subjected to heat-activated epitope retrieval. To block endogenous peroxidases, 20 min incubation in 3% H2O2 (Fisher Scientific) was performed. Slides were further blocked in serum for 1 hour, and primary antibodies were added for overnight incubation at 4° C. The next day, slides were washed and incubated with ImmPRESS HRP Horse Anti-Rabbit IgG Polymer Detection Kit (Vector Laboratories, MP-7401) for 30 min. Following incubation, ImmPACT DAB peroxidase (Vector Laboratories, SK-4100) was used to develop the stain and hematoxylin was used as nuclear counterstain. Stained slides were imaged at 40× magnification. Quantitative analyses of IHC images were performed using ImageJ.

human PDAC cell lines = assay: Human cell line proliferation / viability assay; assay type: cell-based
Protocol: 19 PDAC cell lines were tested for sensitivity to RMC-7977 as part of a panel of human cancer cell lines of various histotypes screened at Crown Bioscience. These PDAC cell lines harbored KRASG12D, KRASG12V, KRASG12C, KRASQ61H, and BRAFV487_P492delinsA
mutations. To measure inhibition of cell proliferation, cells were cultured in methylcellulose and treated in triplicates with serial dilutions of RMC-7977 (top concentration of 1 μM) or DMSO dispensed by a Tecan D300e digital dispenser (Tecan Trading AG). Cells were incubated for 120 hours prior to measurement of ATP levels using CellTiter-Glo. Technical triplicates were run for each biological replicate and a total of three biological replicates was done for each cell line. CTG assay readouts were plotted as a function of log molar [inhibitor] and a 4-parameter sigmoidal concentration response model was fitted to the data. Mean±s.d. was plotted for each tested dilution.
PDAC cell lines harboring KRASWT or KRASQ61H were plated at 500-4,000 cells/well in clear, flat-bottomed 96-well plates (Corning) and grown for 24 h prior to adding indicated concentration of RMC-7977 or DMSO using the D300e digital dispenser (Tecan). Following treatment, cells were incubated for additional 3-5 days after which live cells were fluorescently labelled using Calcein AM (20-minute incubation at 500 nM, Thermo Fisher) and counted using the SpectraMax i3X multimode detection platform (Molecular Devices). Experiments were day 0 normalized using an independent culture plate. Growth percentage was calculated by normalizing drug-treated values to DMSO control, which was set to 100%. Four-parameter sigmoidal concentration response models were fitted to the data from 3 or more biological replicates. Mean±s.d. was plotted for each tested dilution.

[2] = Pharmacokinetics in Capan-1 xenograft model (tumor and blood); assay type: in vivo; details: BALB/c (immune-deficient), mouse, tumor vs whole blood, oral; Capan-1 xenograft tumors; read-out: overall exposure (AUC0-48) in tumors compared to blood
Protocol: Studies were terminated early if tumor burden reached humane endpoint. Body weights were collected twice a week during the study. Means±s.e.m were plotted in the waterfall plots. For the single-dose pharmacokinetic/pharmacodynamic (PK/PD) study, mice were randomized and assigned into groups (n=3-6/dose/timepoint). […] Sakura, 4583) solution or snap-frozen in LN2 for further analysis. Whole blood was transferred into K2EDTA Microtainer tubes (BD, 365974), incubated for 5 minutes and snap-frozen in LN2. Whole blood, tumor, colon and skin tissue concentrations of RMC-7977 were determined using liquid chromatography-tandem mass spectrometry (LC-MS/MS) methods. […] After thorough mixing and centrifugation, the supernatant was directly analyzed on a Sciex 6500+ triple quadrupole mass spectrometer equipped with an ACQUITY or Shimadzu UPLC system. An ACQUITY UPLC BEH C18 or C4 […] (2.1×50 mm) column was used with gradient elution for compound separation. RMC-7977 and IS (verapamil or terfenadine) were detected by positive electrospray ionization using multiple reaction monitoring (RMC-7977: m/z 865.4/706.4 or m/z 865.3/833.5; verapamil: m/z 455.2/164.9; terfenadine: m/z 472.3/436.4). […] BA analysis on blood and tissue samples from xenograft models was run at Wuxi AppTec. BA analysis on blood and tissue samples from allograft models and GEMM was run at Revolution Medicines.

[3] = tested on: autochthonous KPC pancreatic tumors; assay: One-week study in KPC mice; assay type: in vivo, mouse; details: 50 mg/kg q.o.d.
Protocol: Tumor formation in KPC mice was monitored by bi-weekly palpation. […] Treatments were performed every other day via oral gavage for 1 week. […] Following two consecutive ultrasounds, RMC-7977-treated animals were sacrificed either 4 (n=7) or 24 hours (n=4) after last dose and Vehicle-treated animals were sacrificed between 4-24 hours post last dose. Tissue was harvested and preserved as previously described (See Xenograft studies section). Additional group of KPC mice was also treated with a single dose of RMC-7977 (n=10) or Vehicle (n=3) and tissues were harvested at 4 or 24 hours post dose as previously described.

**Q.** Which results are given for CCn1c(-c2cc(N3CCN(C4CC4)CC3)cnc2[C@H](C)OC)c2c3cc(ccc31)-c1csc(n1)C[C@H](NC(=O)[C@H]1[C@@H]3COC[C@@H]31)C(=O)N1CCC[C@H](N1)C(=O)OCC(C)(C)C2 [RMC-7977]?
**A.** time to full restoration of Cyclin A2 levels in normal colon ([1]; KPF/FC mice): ≤ 24 h; proliferation (Cyclin A2) in normal colon ([1]; KPF/FC mice, at 12 hours): transient decrease; spike in CC3+ apoptotic cells in tumors ([1]; KPF/FC tumors, four hours after a single dose): ~4 fold; apoptosis in normal tissues ([1]; all doses and time points): negligible or absent; potency in three additional KRASQ61H PDAC lines (human PDAC cell lines; KRASQ61H (Pa02C, T3M-4, UM147), 5 days): low nanomolar potency; sensitivity of KRASWT cell lines and organoids (human PDAC cell lines; KRASWT cell lines and organoids): wider range of sensitivity; potency in concentration-response cell viability assays (human PDAC cell lines; most human PDAC cell lines, 5 days): low nanomolar potency; sensitivity in vitro (human PDAC cell lines; two human cell lines, one KRASQ61H, one KRASWT with BRAF ClassII mutation): lower sensitivity; Kp [2]: ~3; impact on animal weight [3]: little impact; tumor response ([3]; KPC, 129S4/SvJae): regressions in most tumors
